The numbers were not newly measured in patent publication US8524293B1, “Method for producing a red grape tea-like composition” (priority 2009, dated 2013), which cites them from elsewhere.

One data set deals with flu. Particulars: laboratory animals.
Data set [1] has as its system intestinal tumor formation. The conditions noted are these: cancerous mouse.

For the molecule `O=c1c(O)c(-c2ccc(O)c(O)c2)oc2cc(O)cc(O)c12` [quercetin], the risk of flu entry in the data set on flu is “reduce the risk of flu”.

Regarding catechin, in data set [1], the “focal adhesion kinase activation” value is “suppressed focal adhesion kinase activation” and the intestinal tumor formation result was “inhibited intestinal tumor formation”.
